# According to paper PMC11995724, “Antibiotic target discovery by integrated phenotypic and activity-based profiling of electrophilic fragments” (Cell chemical biology, 2025):
# Structures can show the parent of a compound that is named as a salt.
# Experiment: in vitro
# Settings: human, hek293t cells
row,SMILES,"viability at 48 h, 25 µM"
1,"COc1ccc(NC(=O)N2CCSSCC2)cc1 [10-H21, N-(4-methoxyphenyl)-1,2,5-dithiazepane-5-carboxamide]",103%
2,"COc1ccc(C(=O)C(C)Cl)cc1 (stereo not shown) [10-H22, 2-chloro-1-(4-methoxyphenyl)propan-1-one]",73.6%
3,"NC(=O)CCc1ccc(C(=O)CCl)cc1 [10-I03, 3-[4-(2-chloroacetyl)phenyl]propanamide]",4.69%
4,"Cc1cc(C(=O)CCl)c(C)n1-c1cc(Cl)cc(Cl)c1 [10-I04, 2-chloro-1-[1-(3,5-dichlorophenyl)-2,5-dimethyl-1H-pyrrol-3-yl]ethan-1-one]",0.227%
5,"NS(=O)(=O)c1cccc(N2C(=O)C=CC2=O)c1 [10-I05, 3-(2,5-dioxo-2,5-dihydro-1H-pyrrol-1-yl)benzene-1-sulfonamide]",93.4%
6,"Cc1cc(C(=O)CCl)c(C)c(C)c1C [10-I06, 2-chloro-1-(2,3,4,5-tetramethylphenyl)ethan-1-one]",0.728%
7,"CN(C)C(=O)c1csc(C(=O)CCl)c1 [10-I07, 5-(2-chloroacetyl)-N,N-dimethylthiophene-3-carboxamide]",56.6%
8,"Cc1cc(C(=O)CCl)c(C)n1C(c1ccccc1)c1ccccc1 [10-I08, 2-chloro-1-[1-(diphenylmethyl)-2,5-dimethyl-1H-pyrrol-3-yl]ethan-1-one]",1.32%
9,"O=C(CCl)c1ccncc1F [10-I09, 2-chloro-1-(3-fluoropyridin-4-yl)ethan-1-one hydrochloride]",85%
10,"CC(=O)NCc1ccc(C(=O)CCl)o1 [10-I10, N-{[5-(2-chloroacetyl)furan-2-yl]methyl}acetamide]",86.8%
11,"COC(=O)c1cccc(C(=O)CCl)c1 [10-I11, methyl 3-(2-chloroacetyl)benzoate]",1.87%
12,"COc1ccc(-n2c(C)cc(C(=O)CCl)c2C)cc1 [10-I12, 2-chloro-1-[1-(4-methoxyphenyl)-2,5-dimethyl-1H-pyrrol-3-yl]ethan-1-one]",0.472%
13,"CS(=O)(=O)c1ccc(C(=O)CCl)cc1 [10-I13, 2-chloro-1-(4-methanesulfonylphenyl)ethan-1-one]",65.1%
14,"O=C(CCl)c1ccc2[nH]c(=O)[nH]c2c1 [10-I14, 5-(2-chloroacetyl)-2,3-dihydro-1H-1,3-benzodiazol-2-one]",1.71%
15,"O=C(CCl)Cc1cc(Cl)cc(Cl)c1 [10-I15, 1-chloro-3-(3,5-dichlorophenyl)propan-2-one]",3.97%
16,"Cn1c(N)c(C(=O)CCl)c(=O)[nH]c1=O [10-I16, 6-amino-5-(2-chloroacetyl)-1-methyl-1,2,3,4-tetrahydropyrimidine-2,4-dione]",104%
17,"CC(C)c1ccc(CC(=O)CCl)cc1 [10-I17, 1-chloro-3-[4-(propan-2-yl)phenyl]propan-2-one]",73.5%
18,"O=C(CCl)c1ccc(F)cc1F [10-I18, 2-chloro-1-(2,4-difluorophenyl)ethan-1-one]",77.2%
19,"Cc1cccc(CC(=O)CCl)c1 [10-I19, 1-chloro-3-(3-methylphenyl)propan-2-one]",68.3%
20,"CC(=O)N1c2ccc(C(=O)CCl)cc2CC1C (stereo not shown) [10-I20, 1-(1-acetyl-2-methyl-2,3-dihydro-1H-indol-5-yl)-2-chloroethan-1-one]",3.53%

row,SMILES,"viability at 48 h, 25 µM"
1,"CCn1cc(N2C(=O)C=CC2=O)cn1 [10-I21, 1-(1-ethyl-1H-pyrazol-4-yl)-2,5-dihydro-1H-pyrrole-2,5-dione]",38.5%
2,"CC(C)C(C(=O)O)N1C(=O)C=CC1=O (stereo not shown) [10-I22, 2-(2,5-dioxo-2,5-dihydro-1H-pyrrol-1-yl)-3-methylbutanoic acid]",106%
3,"O=C(CCl)c1ccccn1 [10-J03, 2-chloro-1-(pyridin-2-yl)ethan-1-one]",94.4%
4,"N#CC(C(=O)CCl)=C1Nc2ccccc2S1 [10-J04, 4-chloro-2-(2,3-dihydro-1,3-benzothiazol-2-ylidene)-3-oxobutanenitrile]",0.855%
5,"Cc1nn(CCC(=O)N2CCSSCC2)c(C)c1[N+](=O)[O-] [10-J05, 3-(3,5-dimethyl-4-nitro-1H-pyrazol-1-yl)-1-(1,2,5-dithiazepan-5-yl)propan-1-one]",96.8%
6,"Cn1cc(C(=O)CCl)cc1C(N)=O [10-J06, 4-(2-chloroacetyl)-1-methyl-1H-pyrrole-2-carboxamide]",1.55%
7,"NC(=O)Nc1ccc(C(=O)CCl)cc1 [10-J07, [4-(2-chloroacetyl)phenyl]urea]",108%
8,"Cc1cc(C(=O)CCl)c(C)[nH]1 [10-J08, 2-chloro-1-(2,5-dimethyl-1H-pyrrol-3-yl)ethan-1-one]",1.07%
9,"O=S(=O)(c1cc(Cl)cc(Cl)c1)N1CCSSCC1 [10-J09, 5-(3,5-dichlorobenzenesulfonyl)-1,2,5-dithiazepane]",102%
10,"Cn1ncc(C(=O)CCl)n1 [10-J10, 2-chloro-1-(2-methyl-2H-1,2,3-triazol-4-yl)ethan-1-one]",85.5%
11,"CC(=O)Nc1ccc(NC(=O)N2CCSSCC2)cc1 [10-J11, N-(4-acetamidophenyl)-1,2,5-dithiazepane-5-carboxamide]",120%
12,"Cc1cc(C(=O)CCl)c(C)n1-c1ccc(C(C)C)cc1 [10-J12, 2-chloro-1-{2,5-dimethyl-1-[4-(propan-2-yl)phenyl]-1H-pyrrol-3-yl}ethan-1-one]",0.754%
13,"Cc1ccccc1N1C(=O)C=CC1=O [10-J13, 1-(2-methylphenyl)-2,5-dihydro-1H-pyrrole-2,5-dione]",109%
14,"Cc1cc(C(=O)CCl)c(C)n1-c1ccc(C(F)(F)F)cc1 [10-J14, 2-chloro-1-{2,5-dimethyl-1-[4-(trifluoromethyl)phenyl]-1H-pyrrol-3-yl}ethan-1-one]",0.425%
15,"COc1ccc(N2C(=O)C=CC2=O)c(OC)c1 [10-J15, 1-(2,4-dimethoxyphenyl)-2,5-dihydro-1H-pyrrole-2,5-dione]",109%
16,"CSc1cccc(-n2c(C)cc(C(=O)CCl)c2C)c1 [10-J16, 2-chloro-1-{2,5-dimethyl-1-[3-(methylsulfanyl)phenyl]-1H-pyrrol-3-yl}ethan-1-one]",0.898%
17,"COc1ccc(C(=O)C(C)Cl)c(OC)c1 (stereo not shown) [10-J17, 2-chloro-1-(2,4-dimethoxyphenyl)propan-1-one]",91.9%
18,"Nc1c(C(=O)CCl)c(=O)[nH]c(=O)n1Cc1ccccc1 [10-J18, 6-amino-1-benzyl-5-(2-chloroacetyl)-1,2,3,4-tetrahydropyrimidine-2,4-dione]",88.2%
19,"O=C1C=CC(=O)N1c1ccc(OC(F)(F)F)cc1 [10-J19, 1-[4-(trifluoromethoxy)phenyl]-2,5-dihydro-1H-pyrrole-2,5-dione]",85.4%
20,"CCOC(=O)c1c(C)[nH]c(C(=O)CCl)c1C [10-J20, ethyl 5-(2-chloroacetyl)-2,4-dimethyl-1H-pyrrole-3-carboxylate]",1.66%

row,SMILES,"viability at 48 h, 25 µM"
1,"Cc1cc(Cl)ccc1OC(C)C(=O)N1CCSSCC1 (stereo not shown) [10-J21, 2-(4-chloro-2-methylphenoxy)-1-(1,2,5-dithiazepan-5-yl)propan-1-one]",110%
2,"CC(Cl)C(=O)C=C1N(C)c2ccccc2C1(C)C (stereo not shown) [10-J22, 3-chloro-1-(1,3,3-trimethyl-2,3-dihydro-1H-indol-2-ylidene)butan-2-one]",5.56%
3,"COc1cccc(N2C(=O)C=CC2=O)c1 [10-K03, 1-(3-methoxyphenyl)-2,5-dihydro-1H-pyrrole-2,5-dione]",18.5%
4,"Cc1cc(C(=O)CCl)c(C)n1-c1ccc(OC(F)F)c(Cl)c1 [10-K04, 2-chloro-1-{1-[3-chloro-4-(difluoromethoxy)phenyl]-2,5-dimethyl-1H-pyrrol-3-yl}ethan-1-one]",0.0199%
5,"O=C(CCl)c1c[nH]c2ccncc12 [10-K05, 2-chloro-1-{1H-pyrrolo[3,2-c]pyridin-3-yl}ethan-1-one]",1.3%
6,"CC(=O)Nc1ccc(C(=O)C(C)Cl)cc1 (stereo not shown) [10-K06, N-[4-(2-chloropropanoyl)phenyl]acetamide]",101%
7,"O=C1C=CC(=O)N1CCCCO [10-K07, 1-(4-hydroxybutyl)-2,5-dihydro-1H-pyrrole-2,5-dione]",39.9%
8,"CCOc1ccc(-n2c(C)cc(C(=O)CCl)c2C)cc1 [10-K08, 2-chloro-1-[1-(4-ethoxyphenyl)-2,5-dimethyl-1H-pyrrol-3-yl]ethan-1-one]",0.112%
9,"O=C(CCl)C1CC1(Cl)Cl (stereo not shown) [10-K09, 2-chloro-1-(2,2-dichlorocyclopropyl)ethan-1-one]",1.74%
10,"COc1ccc(Cl)cc1N1C(=O)C=CC1=O [10-K10, 1-(5-chloro-2-methoxyphenyl)-2,5-dihydro-1H-pyrrole-2,5-dione]",81.3%
11,"O=C(CCl)c1sccc1Cl [10-K11, 2-chloro-1-(3-chlorothiophen-2-yl)ethan-1-one]",17%
12,"O=C1C=CC(=O)N1c1ccccc1Sc1ccccc1 [10-K12, 1-[2-(phenylsulfanyl)phenyl]-2,5-dihydro-1H-pyrrole-2,5-dione]",63%
13,"Cc1noc(C)c1C(=O)CCl [10-K13, 2-chloro-1-(3,5-dimethyl-1,2-oxazol-4-yl)ethan-1-one]",56.9%
14,"Cc1cc(C(=O)CCl)c(C)n1-c1ccc2c(c1)OCO2 [10-K14, 1-[1-(1,3-dioxaindan-5-yl)-2,5-dimethyl-1H-pyrrol-3-yl]-2-chloroethan-1-one]",22.4%
15,"O=C(CCl)Cc1c(Cl)cccc1Cl [10-K15, 1-chloro-3-(2,6-dichlorophenyl)propan-2-one]",23.3%
16,"Cc1cc(C(=O)CCl)c(C)s1 [10-K16, 2-chloro-1-(2,5-dimethylthiophen-3-yl)ethan-1-one]",0.769%
17,"O=C(CCl)Cc1cccc(F)c1F [10-K17, 1-chloro-3-(2,3-difluorophenyl)propan-2-one]",33.7%
18,"Cc1ccc2nc(-c3ccc(N4C(=O)C=CC4=O)cc3)sc2c1 [10-K18, 1-[4-(6-methyl-1,3-benzothiazol-2-yl)phenyl]-2,5-dihydro-1H-pyrrole-2,5-dione]",107%
